Source: ChEMBL document CHEMBL4011606, “Synthesis and antiplasmodial activity of novel indoleamide derivatives bearing sulfonamide and triazole pharmacophores” (Eur J Med Chem, 2017)
pIC50: −log10 of the molar value.

Tests used:
Plasmodium falciparum [1] = test: Antiplasmodial activity against chloroquine-sensitive Plasmodium falciparum 3D7 infected in human erythrocytes measured after 72 hrs by SYBR green 1 dye based fluorescence assay; type: functional, cell-based; conditions: 3D7, 72 h
Plasmodium falciparum [2] = test: Antiplasmodial activity against chloroquine-resistant Plasmodium falciparum K1 infected in human erythrocytes measured after 72 hrs by SYBR green 1 dye based fluorescence assay; type: functional, cell-based; conditions: K1, 72 h
[3] = Resistance index, ratio of IC50 for chloroquine-resistant Plasmodium falciparum K1 to IC50 for chloroquine-sensitive Plasmodium falciparum 3D7; type: functional
[4] = Cytotoxicity against African green monkey Vero cells measured after 3 days by resazurin dye based fluorescence assay; type: cell-based; conditions: chlorocebus sabaeus
[5] = Selectivity index, ratio of CC50 for African green monkey Vero cells to IC50 for chloroquine-sensitive Plasmodium falciparum 3D7; type: toxicity; conditions: read-out: Ratio CC50/IC50
[6] = Selectivity index, ratio of CC50 for African green monkey Vero cells to IC50 for chloroquine-resistant Plasmodium falciparum K1; type: toxicity; conditions: read-out: Ratio CC50/IC50

SMILES	pIC50 (Plasmodium falciparum [1])	pIC50 (Plasmodium falciparum [2])	Ratio IC50 [3]	CC50 at 72 h [4] [µM]	selectivity ratio [5]	selectivity ratio [6]
O=C(Cc1c[nH]c2ccccc12)NCc1cn(CC(=O)Nc2ccc(F)c(Cl)c2)nn1	< 5.00	< 5.00	> 1			
O=C(CCCc1cn(CCN2CCOCC2)c2ccccc12)NC1CCCCCC1	5.38	5.15	1.77	> 250	> 60	> 35
O=C(CCCc1cn(S(=O)(=O)c2ccccc2)c2ccccc12)NC12CC3CC(CC(C3)C1)C2	5.30	5.61	0.48	> 250	> 49	> 101
O=C(CCCc1cn(Cc2ccc(Br)cc2)c2ccccc12)NC12CC3CC(CC(C3)C1)C2	5.50	5.47	1.06	> 250	> 79	> 74
Cc1ccc(S(=O)(=O)n2cc(CCCC(=O)NC34CC5CC(CC(C5)C3)C4)c3ccccc32)cc1	5.40	5.40	0.98	> 250	> 62	> 63
O=C(CCCc1cn(CCN2CCCC2)c2ccccc12)NC12CC3CC(CC(C3)C1)C2	5.15	5.01	1.37			
O=C(Cn1cc(Cn2cc(CCCC(=O)NC3CCCCCC3)c3ccccc32)nn1)Nc1ccc(I)cc1	< 5.00	< 5.00	> 1			
O=C(CCCc1cn(Cc2ccc(Br)cc2)c2ccccc12)NC1CCCCCC1	< 5.00	< 5.00	> 1			
O=C(Cn1cc(Cn2cc(CCCC(=O)NC3CCCCCC3)c3ccccc32)nn1)Nc1ccc(F)cc1	5.09	5.11	0.96			
Cc1ccc(NC(=O)Cn2cc(Cn3cc(CCCC(=O)NC45CC6CC(CC(C6)C4)C5)c4ccccc43)nn2)cc1C	< 5.00	5.60	< 0.25	> 250	> 25	> 100
O=C(Cn1cc(Cn2cc(CCCC(=O)NC34CC5CC(CC(C5)C3)C4)c3ccccc32)nn1)Nc1ccc(Cl)cc1	< 5.00	< 5.00	> 1			
O=C(Cc1c[nH]c2ccccc12)NCc1cn(CC(=O)Nc2ccc(Br)cc2)nn1	5.06	< 5.00	> 1.14			
CCCn1cc(CCCC(=O)NC23CC4CC(CC(C4)C2)C3)c2ccccc21	5.32	5.13	1.53			
C=CCn1cc(CCCC(=O)NC23CC4CC(CC(C4)C2)C3)c2ccccc21	5.30	5.12	1.5			
O=C(CCCc1cn(Cc2ccccc2)c2ccccc12)NC1CCCCCC1	5.02	< 5.00	> 1.04			
O=C(CCCc1cn(Cc2cn(Cc3ccccc3)nn2)c2ccccc12)NC12CC3CC(CC(C3)C1)C2	5.67	< 5.00	> 4.62	> 250	> 115	> 25
CCN(CC)CCCC(C)Nc1ccnc2cc(Cl)ccc12 (stereo not given) [CHLOROQUINE]				226		
O=C(Cn1cc(Cn2cc(CCCC(=O)NC34CC5CC(CC(C5)C3)C4)c3ccccc32)nn1)Nc1ccc(F)cc1	< 5.00	5.06	< 0.86			
O=C(Cn1cc(Cn2cc(CCCC(=O)NC3CCCCCC3)c3ccccc32)nn1)Nc1ccc(F)c(Cl)c1	5.00	5.06	0.87			
CC(C)(C)c1ccc(S(=O)(=O)n2cc(CCCC(=O)NC3CCCCCC3)c3ccccc32)cc1	5.70	5.80	0.8	> 250	> 125	> 156
O=C(Cn1cc(Cn2cc(CCCC(=O)NC34CC5CC(CC(C5)C3)C4)c3ccccc32)nn1)Nc1ccc(Br)cc1	< 5.00	5.06	< 0.87			
O=C(Cn1cc(Cn2cc(CCCC(=O)NC3CCCCCC3)c3ccccc32)nn1)Nc1ccc(Cl)cc1	< 5.00	< 5.00	> 1			
O=C(Cn1cc(Cn2cc(CCCC(=O)NC3CCCCCC3)c3ccccc32)nn1)Nc1ccc(Br)cc1	< 5.00	5.06	< 0.87			
Cc1cc(S(=O)(=O)n2cc(CCCC(=O)NC3CCCCCC3)c3ccccc32)c(C)cc1Cl	5.66	5.66	1	> 250	> 115	> 114
O=C(CCCc1cn(S(=O)(=O)c2ccccc2)c2ccccc12)NC1CCCCCC1	5.13	5.22	0.82			
O=C(Cc1c[nH]c2ccccc12)NCc1cn(CC(=O)Nc2ccccc2Cl)nn1	< 5.00	< 5.00	> 1			

SMILES	pIC50 (Plasmodium falciparum [1])	pIC50 (Plasmodium falciparum [2])	Ratio IC50 [3]	CC50 at 72 h [4] [µM]	selectivity ratio [5]	selectivity ratio [6]
Cc1ccc(NC(=O)Cn2cc(CNC(=O)Cc3c[nH]c4ccccc34)nn2)cc1C	5.15	5.19	0.87			
CC(C)(C)c1ccc(S(=O)(=O)n2cc(CCCC(=O)NC34CC5CC(CC(C5)C3)C4)c3ccccc32)cc1	5.73	5.77	0.9	> 250	> 133	> 147
O=C(Cc1c[nH]c2ccccc12)NCc1cn(CC(=O)Nc2ccc(Cl)cc2)nn1	< 5.00	< 5.00	> 1			
O=C(Cc1c[nH]c2ccccc12)NCc1cn(CC(=O)Nc2ccc(I)cc2)nn1	5.42	5.65	0.58	> 250	> 65	> 111
O=C(Cc1c[nH]c2ccccc12)NCc1cn(CC(=O)Nc2ccc(F)cc2)nn1	5.29	5.13	1.43			
O=C(CCCc1c[nH]c2ccccc12)NC1CCCCCC1	< 5.00	< 5.00	> 1			
O=C(CCCc1cn(Cc2ccc(Cl)cc2)c2ccccc12)NC12CC3CC(CC(C3)C1)C2	5.47	5.28	1.55	> 250	> 73	> 47
CCCCCCCn1cc(CCCC(=O)NC23CC4CC(CC(C4)C2)C3)c2ccccc21	5.72	5.45	1.84	> 250	> 130	> 70
O=C(CCCc1cn(S(=O)(=O)c2cccs2)c2ccccc12)NC1CCCCCC1	< 5.00	5.26	< 0.55			
O=C(CCCc1cn(CCN2CCCCC2)c2ccccc12)NC12CC3CC(CC(C3)C1)C2	5.25	< 5.00	> 1.37			
O=C(CCCc1cn(S(=O)(=O)c2cccc3ccccc23)c2ccccc12)NC1CCCCCC1	5.33	5.43	0.78	> 250	> 53	> 67
Cc1cc(S(=O)(=O)n2cc(CCCC(=O)NC34CC5CC(CC(C5)C3)C4)c3ccccc32)c(C)cc1Cl	5.71	5.67	1.15	> 250	> 129	> 112
O=C(Cn1cc(Cn2cc(CCCC(=O)NC3CCCCCC3)c3ccccc32)nn1)Nc1ccccc1Cl	< 5.00	< 5.00	> 1			
O=C(CCCc1cn(Cc2ccc(F)cc2)c2ccccc12)NC12CC3CC(CC(C3)C1)C2	5.66	5.46	1.59	> 250	> 113	> 71
O=C(CCCc1c[nH]c2ccccc12)NC12CC3CC(CC(C3)C1)C2	< 5.00	< 5.00	> 1			
O=C(CCCc1cn(Cc2ccc(Cl)cc2)c2ccccc12)NC1CCCCCC1	< 5.00	< 5.00	> 1			
CC(C)(C)c1ccc(S(=O)(=O)n2cc(CCCC(=O)NC3C4CC5CC(C4)CC3C5)c3ccccc32)cc1 (stereo not given)	5.47	5.37	1.27	> 250	> 74	> 58
Cn1cc(CCCC(=O)NC23CC4CC(CC(C4)C2)C3)c2ccccc21	5.01	< 5.00	> 1.02			
O=C(CCCc1cn(Cc2ccccc2)c2ccccc12)NC12CC3CC(CC(C3)C1)C2	5.44	5.38	1.16	> 250	> 69	> 59
Cn1cc(CCCC(=O)NC2CCCCCC2)c2ccccc21	< 5.00	< 5.00	> 1			
CC(C)(C)c1ccc(S(=O)(=O)n2cc(CCC(=O)NC3CCCCCC3)c3ccccc32)cc1	5.20	5.24	0.92			
O=C(CCCc1cn(Cc2cn(Cc3ccccc3)nn2)c2ccccc12)NC1CCCCCC1	< 5.00	< 5.00	> 1			
C=CCn1cc(CCCC(=O)NC2CCCCCC2)c2ccccc21	< 5.00	< 5.00	> 1			
Cc1ccc(NC(=O)Cn2cc(Cn3cc(CCCC(=O)NC4CCCCCC4)c4ccccc43)nn2)cc1C	< 5.00	< 5.00	> 1			
CC(C)(C)c1ccc(S(=O)(=O)n2cc(CCC(=O)NC34CC5CC(CC(C5)C3)C4)c3ccccc32)cc1	5.24	5.21	1.06			
O=C(Cn1cc(Cn2cc(CCCC(=O)NC34CC5CC(CC(C5)C3)C4)c3ccccc32)nn1)Nc1ccc(I)cc1	< 5.00	< 5.00	> 1			
